Measured values published in paper PMC12867150, “A fungi-derived cyclic peptide enhances Th9-mediated antitumor immunity by targeting ZAP70 and SREBP1” (The Journal of Clinical Investigation, 2025).
Where “and” joins values, the source holds several entries; their conditions need not be identical. Equal entries are not always repeated.

Tests used:
[1] = system: chromatin accessibility in Th9 cells; assay: Bulk ATAC-seq of Th9 cells (Figure 3C, S3E); type: cell-based, mouse; conditions: result in words
Excerpt: Raw FASTQ reads were subjected to quality control using Trim Galore to remove adapter sequences and low-quality bases. Cleaned reads were aligned to the GRCm38 mouse reference genome using Bowtie2. Low-quality alignments were filtered out using SAMtools, and PCR duplicates were removed using Sambamba to reduce technical artifacts. ENCODE blacklist regions were excluded using BEDtools. Read positions were adjusted using alignmentSieve, followed by sorting and indexing with SAMtools to generate BAM files. Peak calling was conducted using MACS3 to identify regions of open chromatin indicative of accessible regulatory elements.

B16-OVA melanoma = assay: Adoptive transfer of OT-II Th9 cells, B16-OVA tumor growth in C57BL/6 mice (Figure 2A, 2H); type: in vivo; conditions: EpA-Th9 cells vs conventional Th9 cells; result in words
Excerpt: (A) Schematic of the therapeutic model. C57BL/6 mice were subcutaneously inoculated with B16-OVA melanoma cells (5 × 10^5) and preconditioned with cyclophosphamide (CTX) on day 4. […] (B–G) Flow-cytometric analysis of transferred CD45.1^+ OT-II Th9 cells (B and C) and endogenous CD4^+ (D and E) and CD8^+ T cells (F and G) in spleens and tumors, showing frequencies and absolute numbers (n = 4 mice per group). (H) Tumor growth curves in B16-OVA–bearing C57BL/6 or β2-microglobulin–deficient (β2m-KO) mice following transfer of control or EpA-treated OT-II Th9 cells (n = 4 mice per group). (I) C57BL/6 mice bearing B16-OVA tumors were treated with control or EpA-induced OT-II Th9 cells (2 × 10^6, i.v., day 5), followed by anti–PD-1 antibody (200 μg, i.p.) on day 7, and (100 μg, i.p.) on day 10 and 12. Tumor growth is shown with individual trajectories (n = 6 mice per group). Statistical analysis was performed using 2-tailed unpaired Student’s t test ([…], B–G) or 1-way ANOVA with Tukey’s post hoc test (H and I). All data are presented as the mean ± SEM. *P < 0.05, **P < 0.01, ***P < 0.001. Schematic in A created using BioRender (https://Biorender.com).
C57BL/6 mice were subcutaneously injected with 5 × 10^5 B16-OVA melanoma cells. […]

endogenous CD8+ T cells = assay: Cytokines and granzyme B/perforin in endogenous CD8+ T cells (Figure 3H, S4D-F); type: in vivo, mouse; design: TNF-α expression / IFN-γ expression / Expression of IFN-g of endogenous CD8⁺ T cells in tumor / Expression of TNF-α of endogenous CD8⁺ T cells in tumor: unit not given here; conditions: for Expression of IFN-g of endogenous CD8⁺ T cells in tumor: Supplemental Figure 4D; for Expression of TNF-α of endogenous CD8⁺ T cells in tumor: Supplemental Figure 4E; for Expression of GzmB+Perforin+ of endogenous CD8⁺ T cells in tumor: Supplemental Figure 4F
Experimental: C57BL/6 mice were subcutaneously injected with 5 × 10^5 B16-OVA melanoma cells. Five days after tumor implantation, mice received an intravenous infusion of 2 × 10^6 in vitro–differentiated Th9 cells (cultured for 5 days), which were derived from OT-II CD45.1 donor mice, accompanied by 4 × 10^5 OVA peptide–pulsed DCs via the tail vein. To enhance T cell engraftment and facilitate lymphodepletion, a single intraperitoneal injection of cyclophosphamide (200 mg/kg, Sigma, catalog C0768) was administered 1 day prior to T cell transfer. Mice were euthanized at designated time points for the collection and analysis of spleens, tumor-draining lymph nodes, and tumor tissues.
Details regarding staining panels (human and mouse), reagents (including clones and catalog numbers), acquisition settings, compensation/controls, and analysis procedures are provided in Supplemental Methods.
BioLegend, Cat. No. 422301 or Mouse TruStain FcX™, BioLegend, Cat. No. 101319) for 10 minutes at 4°C. For surface marker detection, cells were stained with fluorochrome-conjugated monoclonal antibodies in 96-well V-bottom plates and incubated on ice for 30 minutes. After staining, cells were washed twice and resuspended in FACS buffer for analysis.
Prior to intracellular cytokine staining, cells were restimulated for 4 hours with PMA (Absin, Cat. No. abs9107), ionomycin (Sigma-Aldrich, Cat. No. I0634), and brefeldin A (MedChemExpress, Cat. No. HY-16592). For intracellular cytokine staining, cells were first surface-stained as described above, then fixed and permeabilized using the BD Cytofix/Cytoperm™ kit (BD Biosciences, Cat. No. 554714) according to the manufacturer ’s protocol. Intracellular proteins were stained with directly conjugated antibodies targeting IL-9, IL-17a, IL-4, IFN-γ, TNF-α, FOXP3, p-ZAP70, Perforin, and […]
Antibodies used for mouse samples included those against IL-9 (PE, clone RM9A4, Biolegend, Cat. No. 514104), IFN-γ (PE, clone XMG1.2, Biolegend, Cat. No.
Cat. No. 103138), CD4 (APC/Cy7, clone E-AB-F1353UJ, Elabscience, Cat. No.
AF18028), CD8α (PerCP/Cy5.5, clone E-AB-F1104UJ, Elabscience, Cat. No. […]
clone E-AB-F1187UH, Elabscience, Cat. No. AF19854), TNF-α (BV421, clone MP6-XT22, Biolegend, Cat. No. 506328), FOXP3 (PE, clone FJK-16s, eBioscience, Cat. No.
Perforin (APC, clone S16009A, Biolegend, Cat. No. 154303) and Granzyme B (APC, clone QA16A02, Biolegend, Cat. No. 372203). For human samples, antibodies against CD4 (PerCP/Cy5.5, clone RPA-T4, Biolegend, Cat. No. 300530; APC/Cy7, clone OKT4, Biolegend, Cat. No. 317418), CD19 (APC/Cy7, clone SJ25C1, Biolegend, Cat.
No. 363009), IFN-γ (PE, clone 4S.B3, Biolegend, Cat. No. 502509), IL-9 (PE, clone

[2] = endogenous CD8+, spleen, individual mice, n = 4

In the case of anteiso-C15 Leu7 surfactin [EpA], the “Ifng accessibility and expression” value [1] is reported as “further reduced”, the “Il9 locus accessibility and transcription” value [1] is reported as “increased accessibility and transcription” and the global chromatin accessibility [1] is reported as “only modestly affected”. The tumor control (B16-OVA melanoma) was “significantly improved tumor control”, the “GzmB+ PRF1+ gate number” value (endogenous CD8+ T cells; CD8+ T cells in tumors, representative flow plot, Figure S4F) was 30.0 and the “GzmB and Perforin expression” value (endogenous CD8+ T cells; [2]) was 76.8 and 76 and 70.2 and 67.3. The IFN-γ expression (endogenous CD8+ T cells; [2]) was 11.6 and 15.2 and 19.5 and 6.9, the TNF-α expression (endogenous CD8+ T cells; [2]) was 6.15 and 4.55 and 6.06 and 5 and the “TNF-α expression of CD8+ T cells” value (endogenous CD8+ T cells; spleen, result in words) was “remained unchanged”. The “granzyme B+ perforin+ CD8+ T cells” value (endogenous CD8+ T cells; spleen, result in words) was “pronounced increase”, the “Expression of IFN-g of endogenous CD8⁺ T cells in tumor” value (shortened to “Expression of IFN-g … in tumor”) (endogenous CD8+ T cells; replicate 1) was 2162 and the “Expression of IFN-g … in tumor” value (endogenous CD8+ T cells; replicate 2) was 2256. For the same substance, the “Expression of IFN-g … in tumor” value (endogenous CD8+ T cells; replicate 3) was 2381, the “Expression of IFN-g … in tumor” value (endogenous CD8+ T cells; replicate 4) was 2246 and the “Expression of TNF-α of endogenous CD8⁺ T cells in tumor” value (“Expression of TNF-α … in tumor” below) (endogenous CD8+ T cells; replicate 1) was 989. For the same substance, the “Expression of TNF-α … in tumor” value (endogenous CD8+ T cells; replicate 2) was 542, the “Expression of TNF-α … in tumor” value (endogenous CD8+ T cells; replicate 3) was 1324 and the “Expression of TNF-α … in tumor” value (endogenous CD8+ T cells; replicate 4) was 780. For the same substance, the “Expression of GzmB+Perforin+ of endogenous CD8⁺ T cells in tumor” value (from here on “Expression of GzmB+Perforin+ … in tumor”) (endogenous CD8+ T cells; replicate 1) was 28.2, the “Expression of GzmB+Perforin+ … in tumor” value (endogenous CD8+ T cells; replicate 2) was 30 and the “Expression of GzmB+Perforin+ … in tumor” value (endogenous CD8+ T cells; replicate 3) was 29.9. For the same substance, the “Expression of GzmB+Perforin+ … in tumor” value (endogenous CD8+ T cells; replicate 4) was 58.8 and the “TNF-α expression of CD8+ T cells” value (endogenous CD8+ T cells; tumors, result in words) was “upregulated TNF-α expression”.
